# Assay results as given in patent US9428508B2, “2,4-diamino-6,7-dihydro-5H-pyrrolo[2,3]pyrimidine derivatives as FAK/Pyk2 inhibitors” (Centaurus BioPharma Co., Ltd., priority 2011, dated 2016).
# Key:
# FAK = FAK (Homo sapiens (Human), UniProt Q05397); experiment: Biochemical assay for FAK activity (LANCE TR-FRET, ULight-poly Glu,Ala,Tyr substrate); details: GST-tagged FAK, 120 min reaction
# Summary of the method: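 GST-tagged FAK (2.5 nM working stock) with ULight-poly Glu,Ala,Tyr (666 nM stock) and ATP (33.3 μM stock) in Tris pH 7.5/MgCl2/DTT/CHAPS buffer with BSA, 120 min; EDTA-quenched. Phosphorylation read by TR-FRET with Eu-anti-phosphotyrosine (PY20) antibody after 60 min. Compounds tested as 12-point 3-fold dilutions.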
# PYK2 = PYK2 (Homo sapiens (Human), UniProt Q14289); experiment: Biochemical assay for PYK2 activity (LANCE TR-FRET, ULight-poly Glu,Ala,Tyr substrate); details: GST-tagged PYK2, 40 min reaction
# Summary of the method: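 GST-tagged human PYK2 (2 nM working stock) with ULight-poly Glu,Ala,Tyr (1:1:1) peptide (666 nM working stock) and ATP (46.6 μM working stock) in 40 mM Tris pH 7.5, MgCl2, 1 mM DTT, 1 mM CHAPS; 40 min reaction, EDTA quench. Phosphotyrosine read by LANCE Eu-anti-phosphotyrosine (PY20) TR-FRET after 60 min; 12-point 3-fold compound dilutions.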
# FAK, sequence (Q05397 whole entry): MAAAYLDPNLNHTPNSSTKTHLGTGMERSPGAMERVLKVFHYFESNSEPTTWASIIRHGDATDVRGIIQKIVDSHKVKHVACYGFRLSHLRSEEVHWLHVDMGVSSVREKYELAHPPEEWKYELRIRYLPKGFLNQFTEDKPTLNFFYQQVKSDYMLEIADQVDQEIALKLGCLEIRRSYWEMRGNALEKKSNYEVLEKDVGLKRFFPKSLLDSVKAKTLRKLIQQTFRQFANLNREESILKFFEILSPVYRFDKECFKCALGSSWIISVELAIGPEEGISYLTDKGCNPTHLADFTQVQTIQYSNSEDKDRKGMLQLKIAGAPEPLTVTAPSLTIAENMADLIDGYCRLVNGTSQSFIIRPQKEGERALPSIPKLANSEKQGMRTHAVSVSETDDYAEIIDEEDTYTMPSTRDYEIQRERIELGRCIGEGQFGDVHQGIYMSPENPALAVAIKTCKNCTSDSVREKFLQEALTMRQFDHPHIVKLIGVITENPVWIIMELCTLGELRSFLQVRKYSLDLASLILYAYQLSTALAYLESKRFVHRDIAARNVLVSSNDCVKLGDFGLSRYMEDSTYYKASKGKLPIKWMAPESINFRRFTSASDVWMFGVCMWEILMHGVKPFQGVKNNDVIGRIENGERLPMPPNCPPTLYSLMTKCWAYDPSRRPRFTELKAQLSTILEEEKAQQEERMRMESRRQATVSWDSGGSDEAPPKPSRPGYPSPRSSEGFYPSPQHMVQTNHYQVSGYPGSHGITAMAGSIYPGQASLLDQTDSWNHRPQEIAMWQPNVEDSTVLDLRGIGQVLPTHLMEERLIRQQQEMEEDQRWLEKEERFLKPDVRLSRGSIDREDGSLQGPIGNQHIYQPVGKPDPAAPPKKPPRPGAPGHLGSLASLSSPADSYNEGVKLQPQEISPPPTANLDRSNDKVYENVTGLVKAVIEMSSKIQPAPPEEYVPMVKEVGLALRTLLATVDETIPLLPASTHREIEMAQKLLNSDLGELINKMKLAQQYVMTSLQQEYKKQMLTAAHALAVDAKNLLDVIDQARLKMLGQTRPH
# PYK2, sequence (Q14289 whole entry): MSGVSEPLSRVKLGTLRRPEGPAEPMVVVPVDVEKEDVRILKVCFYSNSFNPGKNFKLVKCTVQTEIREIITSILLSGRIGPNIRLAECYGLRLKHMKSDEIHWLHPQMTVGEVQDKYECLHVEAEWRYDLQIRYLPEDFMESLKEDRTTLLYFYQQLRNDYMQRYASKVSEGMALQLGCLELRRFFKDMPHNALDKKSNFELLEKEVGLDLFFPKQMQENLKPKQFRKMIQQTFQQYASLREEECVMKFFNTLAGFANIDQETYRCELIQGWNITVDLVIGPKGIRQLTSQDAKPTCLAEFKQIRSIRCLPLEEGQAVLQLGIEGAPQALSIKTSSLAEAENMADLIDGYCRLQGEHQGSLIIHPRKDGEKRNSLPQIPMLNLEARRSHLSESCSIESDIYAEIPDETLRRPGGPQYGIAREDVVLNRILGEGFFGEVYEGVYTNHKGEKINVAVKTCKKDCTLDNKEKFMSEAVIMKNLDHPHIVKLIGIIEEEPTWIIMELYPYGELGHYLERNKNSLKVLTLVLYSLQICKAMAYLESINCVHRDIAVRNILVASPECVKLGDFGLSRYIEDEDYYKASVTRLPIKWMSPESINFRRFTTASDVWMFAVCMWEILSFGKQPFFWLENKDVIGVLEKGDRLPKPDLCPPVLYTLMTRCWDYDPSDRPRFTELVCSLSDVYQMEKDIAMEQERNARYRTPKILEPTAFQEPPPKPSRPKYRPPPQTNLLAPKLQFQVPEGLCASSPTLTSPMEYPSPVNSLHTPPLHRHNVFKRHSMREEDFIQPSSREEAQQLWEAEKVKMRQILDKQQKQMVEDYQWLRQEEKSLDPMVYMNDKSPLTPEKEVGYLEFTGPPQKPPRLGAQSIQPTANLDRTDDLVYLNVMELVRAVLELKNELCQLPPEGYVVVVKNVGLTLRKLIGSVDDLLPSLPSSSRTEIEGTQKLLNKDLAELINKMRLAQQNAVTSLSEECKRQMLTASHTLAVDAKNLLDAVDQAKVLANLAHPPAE
IC50 (FAK) [nM],IC50 (PYK2) [nM],Structure (SMILES)
< 500,> 1000,"CC(C)NS(=O)(=O)c1ccccc1Nc1nc(Nc2ccc(N3CCOCC3)cc2C(F)(F)F)nc2c1CCN2 [Example 60, N-isopropyl-2-(2-(4-morpholino-2-(trifluoromethyl)phenylamino)-6,7-dihydro-5H-pyrrolo[2,3-d]pyrimidin-4-ylamino)benzenesulfonamide]"
< 20,< 50,"COc1cc(N2CCOCC2)ccc1Nc1nc2c(c(Nc3ccccc3S(=O)(=O)NC3CC3)n1)CCN2 [Example 42, N-cyclopropyl-2-(2-(2-methoxy-4-morpholinophenylamino)-6,7-dihydro-5H-pyrrolo[2,3-d]pyrimidin-4-ylamino)benzenesulfonamide]"
< 20,< 20,"CNS(=O)(=O)c1ccccc1Nc1nc(Nc2ccc(N3CCOCC3)cc2OC)nc2c1C(C)(C)CN2 [Example 103, 2-(2-(2-methoxy-4-morpholinophenylamino)-5,5-dimethyl-6,7-dihydro-5H-pyrrolo[2,3-d]pyrimidin-4-ylamino)-N-methylbenzenesulfonamide]"
< 20,< 50,"CC(C)NS(=O)(=O)c1ccccc1Nc1nc(Nc2ccc(N3CCOCC3)cn2)nc2c1CCN2 [Example 58, N-isopropyl-2-(2-(5-morpholinopyridin-2-ylamino)-6,7-dihydro-5H-pyrrolo[2,3-d]pyrimidin-4-ylamino)benzenesulfonamide]"
< 100,< 200,"COc1cc(N2CCOCC2)ccc1Nc1nc2c(c(Nc3ccccc3S(=O)(=O)Nc3ccccc3)n1)C1(CC1)CN2 [Example 143, 2-(2′-(2-methoxy-4-morpholinophenylamino)-6′,7′-dihydrospiro[cyclopropane-1,5′-pyrrolo[2,3-d]pyrimidine]-4′-ylamino)-N-phenylbenzenesulfonamide]"
< 20,< 20,"CNS(=O)(=O)c1ccccc1Nc1nc(Nc2cc(OC)c(OC)c(OC)c2)nc2c1C1(CC1)CN2 [Example 157, N-methyl-2-(2′-(3,4,5-trimethoxyphenylamino)-6′,7′-dihydrospiro[cyclopropane-1,5′-pyrrolo[2,3-d]pyrimidine]-4′-ylamino)benzenesulfonamide]"
< 500,< 500,"COc1cc(N2CCOCC2)ccc1Nc1nc2c(c(Nc3ccccc3S(=O)(=O)NCCN(C)C)n1)CCN2 [Example 49, N-(2-(dimethylamino)ethyl)-2-(2-(2-methoxy-4-morpholinophenylamino)-6,7-dihydro-5H-pyrrolo[2,3-d]pyrimidin-4-ylamino)benzenesulfonamide]"
< 20,< 20,"COc1cc(N2CCC(N3CCCC3)CC2)ccc1Nc1nc2c(c(Nc3ccccc3S(=O)(=O)NC(C)C)n1)CCN2 [Example 93, N-isopropyl-2-(2-(2-methoxy-4-(4-(pyrrolidin-1-yl)piperidin-1-yl)phenylamino)-6,7-dihydro-5H-pyrrolo[2,3-d]pyrimidin-4-ylamino)benzenesulfonamide]"
< 20,< 20,"CCCCNS(=O)(=O)c1ccccc1Nc1nc(Nc2ccc(N3CCOCC3)cc2OC)nc2c1C(C)(C)CN2 [Example 110, N-butyl-2-(2-(2-methoxy-4-morpholinophenylamino)-5,5-dimethyl-6,7-dihydro-5H-pyrrolo[2,3-d]pyrimidin-4-ylamino)benzenesulfonamide]"
< 1000,< 500,"CC(C)NS(=O)(=O)c1ccccc1Nc1nc(Nc2ccc(C(F)(F)F)cc2)nc2c1CCN2 [Example 61, N-isopropyl-2-(2-(4-(trifluoromethyl)phenylamino)-6,7-dihydro-5H-pyrrolo[2,3-d]pyrimidin-4-ylamino)benzenesulfonamide]"
< 100,< 100,"COc1cc(N2CCOCC2)ccc1Nc1nc2c(c(NC3CCCCC3N(C)S(C)(=O)=O)n1)C(C)(C)CN2 (stereo not shown) [Example 127, N-(2-(2-(2-methoxy-4-morpholinophenylamino)-5,5-dimethyl-6,7-dihydro-5H-pyrrolo[2,3-d]pyrimidin-4-ylamino)cyclohexyl)-N-methylmethanesulfonamide]"
